Results on 44 compounds are retold here after patent US20100111888A1, “Organic Compounds and Compositions Having the Ability to Modulate Fragrance Compositions” (GIVAUDAN SA, priority 2007, published 2010).

Each structure is given as a SMILES string.

This assay addresses T1, CYP2A13 (Homo sapiens, UniProt Q16696).
T1 construct: made in house; host or cells: Sf9 insect cells, recombinant baculovirus
T1 sequence (Q16696 1-494): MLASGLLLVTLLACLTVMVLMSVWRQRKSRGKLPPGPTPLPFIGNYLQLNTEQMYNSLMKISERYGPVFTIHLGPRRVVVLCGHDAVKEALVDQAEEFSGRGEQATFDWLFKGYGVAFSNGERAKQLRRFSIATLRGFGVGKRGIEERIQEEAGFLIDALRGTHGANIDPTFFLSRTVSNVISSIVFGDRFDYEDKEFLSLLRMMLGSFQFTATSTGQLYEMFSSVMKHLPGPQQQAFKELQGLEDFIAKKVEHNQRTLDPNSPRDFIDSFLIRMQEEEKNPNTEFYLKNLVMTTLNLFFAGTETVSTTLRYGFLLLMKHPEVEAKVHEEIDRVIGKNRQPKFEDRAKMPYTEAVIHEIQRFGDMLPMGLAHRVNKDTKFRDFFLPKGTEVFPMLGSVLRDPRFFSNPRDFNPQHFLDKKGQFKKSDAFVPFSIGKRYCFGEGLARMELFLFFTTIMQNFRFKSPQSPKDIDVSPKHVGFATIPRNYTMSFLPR
The experiment in a line: Evaluation of test compounds as inhibitors of CYP2A13 (coumarin to Umbelliferone, fluorescence). In kind it is biochemical. Particulars: substrate coumarin 0.006 mM; microsomes with 7 pmoles CYP2A13; 60 min at 37° C.; read-out: CYP2A13 inhibitor activity IC50. The text has this: P450 reductase is commercially available (BD Biosciences Gentest, USA).
Microsomes were used which contained 7 pmoles CYP2A13.
Regarding `CCCCCC/C(=C\c1ccccc1)C(C)=O` [Compound ID 6, (E)-3-benzylidenenonan-2-one], the IC50 was 3 µM.
In the case of `CCCCC/C(=C\c1ccc(C#N)cc1)C(C)=O` [Compound ID 7, (E)-4-(2-acetylhept-1-enyl)benzonitrile] it was 2 µM; in that of `CCCCC/C(=C\c1ccc2ccccc2c1)C(C)=O` [Compound ID 8, (E)-3-(naphthalen-2-ylmethylene)octan-2-one], 16.3 µM.
In the case of `CCCCC/C(=C\c1cccs1)C(C)=O` [Compound ID 9, (E)-3-(thiophen-2-ylmethylene)octan-2-one] it was 5.3 µM; in that of `CCCC/C(=C\C1CCOC1)C(C)=O` (centres unmarked) [Compound ID 10, (E)-3-((tetrahydrofuran-3-yl)methylene)heptan-2-one], 15.5 µM.
To `CCCCC/C(=C\C(OC)OC)C(C)=O` [Compound ID 11, (E)-3-(2,2-dimethoxyethylidene)octan-2-one] belongs 1.6 µM; to `CCCCC/C(=C\CC1(C)OCCO1)C(C)=O` [Compound ID 12, (E)-3-(2-(2-methyl-1,3-dioxolan-2-yl)ethylidene)octan-2-one], 3.2 µM.
With `CCCCCC/C(=C\C1CC1)C(=O)/C=C/C1CC1` [Compound ID 13, (1E,4E)-1-cyclopropyl-4-(cyclopropylmethylene)dec-1-en-3-one], the IC50 is 9.7 µM.
To `CCCCCC1(C(=O)OC)CCCC1` [Compound ID 14, methyl 1-pentylcyclopentanecarboxylate] belongs 2.1 µM.
In the case of `CCCCCC1(C(C)=O)CCCC1` [Compound ID 15, 1-(1-pentylcyclopentyl)ethanone] it was 0.7 µM; in that of `CCCCC/C(=C\C1CCCCC1)C(C)=O` [Compound ID 16, (E)-3-(cyclohexylmethylene)octan-2-one], 0.5 µM; in that of `CCCCC/C(=C\C1CC=CCC1)C(C)=O` (centres unmarked) [Compound ID 17, (E)-3-(cyclohex-3-enylmethylene)octan-2-one], 0.6 µM.
Consider `CCCCC/C(=C\C1CCCC1)C(C)=O` [Compound ID 18, (E)-3-(cyclopentylmethylene)octan-2-one], for which the IC50 amounted to 0.5 µM.
To `CCCCC/C(=C\C1CCC1)C(C)=O` [Compound ID 19, (E)-3-(cyclobutylmethylene)octan-2-one] belongs 0.3 µM.
To `CCCCC/C(=C\c1ccccc1F)C(C)=O` [Compound ID 20, (E)-3-(2-fluorobenzylidene)octan-2-one] belongs 0.3 µM.
For `CCCCC/C(=C\c1cccc(F)c1)C(C)=O` [Compound ID 21, (E)-3-(3-fluorobenzylidene)octan-2-one], the IC50 amounted to 0.3 µM.
To `CCCCC/C(=C\c1ccc(F)cc1)C(C)=O` [Compound ID 22, (E)-3-(4-fluorobenzylidene)octan-2-one] belongs 0.4 µM; to `CCCCC/C(=C\c1c(F)cccc1F)C(C)=O` [Compound ID 23, (E)-3-(2,6-difluorobenzylidene)octan-2-one], 0.2 µM.
In the case of `CCCCC/C(=C\c1ccc(F)cc1F)C(C)=O` [Compound ID 24, (E)-3-(2,4-difluorobenzylidene)octan-2-one] it was 0.2 µM.
In the case of `CCCCC/C(=C\c1cc(F)cc(F)c1)C(C)=O` [Compound ID 25, (E)-3-(3,5-difluorobenzylidene)octan-2-one] it was 0.6 µM; in that of `CCCCC/C(=C/c1cc(F)cc(F)c1)C(C)=O` [Compound ID 26, (Z)-3-(3,5-difluorobenzylidene)octan-2-one], 14.3 µM; in that of `CCCCC/C(=C\c1c(F)c(F)c(F)c(F)c1F)C(C)=O` [Compound ID 27, (E)-3-(perfluorobenzylidene)octan-2-one], 0.7 µM.
For the compound `CCCCC/C(=C\c1ccccc1C)C(C)=O` [Compound ID 28, (E)-3-(2-methylbenzylidene)octan-2-one], the IC50 is 0.3 µM.
In the case of `CCCCC/C(=C\c1cccc(C)c1)C(C)=O` [Compound ID 29, (E)-3-(3-methylbenzylidene)octan-2-one] it was 0.4 µM; in that of `CCCCC/C(=C\c1ccc(C)cc1)C(C)=O` [Compound ID 30, (E)-3-(4-methylbenzylidene)octan-2-one], 0.4 µM; in that of `CCCCC/C(=C\c1ccccc1C(F)(F)F)C(C)=O` [Compound ID 31, (E)-3-(2-(trifluoromethyl)benzylidene)octan-2-one], 0.2 µM.
For the compound `CCC/C(=C\c1ccccc1)C(C)=O` [Compound ID 32, (E)-3-benzylidenehexan-2-one], the IC50 stood at 1 µM.
For the compound `CCCC/C(=C\c1ccccc1)C(C)=O` [Compound ID 33, (E)-3-benzylideneheptan-2-one], the IC50 turned out to be 0.6 µM.
In the case of `CCCCC/C(=C\c1ccccc1OC)C(C)=O` [Compound ID 34, (E)-3-(2-methoxybenzylidene)octan-2-one] it was 0.4 µM; in that of `CCCCC/C(=C\c1cccc(OC)c1)C(C)=O` [Compound ID 35, (E)-3-(3-methoxybenzylidene)octan-2-one], 0.5 µM.
In the case of `CCCCC/C(=C\c1ccc(OC)cc1)C(C)=O` [Compound ID 36, (E)-3-(4-methoxybenzylidene)octan-2-one] it was 0.4 µM; in that of `CCCC/C(=C\c1ccc(OC)cc1)C(C)=O` [Compound ID 37, (E)-3-(4-methoxybenzylidene)heptan-2-one], 1.4 µM; in that of `CCC/C(=C\c1ccc(OC)cc1)C(C)=O` [Compound ID 38, (E)-3-(4-methoxybenzylidene)hexan-2-one], 2 µM.
For the compound `CCCCC/C(=C\c1ccc2c(c1)OCO2)C(C)=O` [Compound ID 39, (E)-3-(benzo[d][1,3]dioxol-5-ylmethylene)octan-2-one], the IC50 came to 2 µM.
In the case of `CCCCC/C(=C\c1ccc(C(=O)OC)cc1)C(C)=O` [Compound ID 40, (E)-methyl 4-(2-acetylhept-1-enyl)benzoate] it was 1.1 µM.
To `CCCCC/C(=C/c1ccc(C(=O)OC)cc1)C(C)=O` [Compound ID 41, (Z)-methyl 4-(2-acetylhept-1-enyl)benzoate] belongs 47.2 µM; to `CCCCC/C(=C\c1ccccn1)C(C)=O` [Compound ID 43, (E)-3-(pyridin-2-ylmethylene)octan-2-one], 0.1 µM; to `CCCCC/C(=C\c1cccnc1)C(C)=O` [Compound ID 44, (E)-3-(pyridin-3-ylmethylene)octan-2-one], 0.1 µM.
In the case of `CCCCC/C(=C\c1ccncc1)C(C)=O` [Compound ID 45, (E)-3-(pyridin-4-ylmethylene)octan-2-one] it was 0.5 µM; in that of `CCCCC/C(=C\C1CC1)C(=O)OC` [Compound ID 46, (E)-methyl 2-(cyclopropylmethylene)heptanoate], 2.3 µM.
Take `CCCCC/C(=C\c1ccccc1)C(=O)OC` [Compound ID 47, (E)-methyl 2-benzylideneheptanoate]: the 50% inhibitory concentration (IC50) stood at 0.5 µM.
Turning to `CCCCCC(CC1CC1)C(=O)OC` (centres unmarked) [Compound ID 48, methyl 2-(cyclopropylmethyl)heptanoate], the IC50 came out at 8.7 µM.
As to `CCCCCC(Cc1ccccc1)C(=O)OC` (centres unmarked) [Compound ID 49, methyl 2-benzylheptanoate], the IC50 came out at 4.4 µM.
In the case of `CCCCCC(CC1CC1)C(C)=O` (centres unmarked) [Compound ID 50, 3-(cyclopropylmethyl)octan-2-one] it was 1.3 µM.
